# US9434687B2, “Detection of synthetic cannabinoids” (priority 2011, dated 2016)
# Tests used:
# Assay type in all cases: binding, sheep
# [1] = test system: IgG fraction of antiserum raised to Immunogen I; details: Antibody to Immunogen I; cross-reactants at 100 ng/ml; 1000 ng/ml; standard JWH-018
# How it was run: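 Plates were coated with the IgG fraction of sheep antiserum raised to Immunogen I and incubated with standards (JWH-018, 0-40 ng/ml) plus hapten-HRP conjugate for 1 h at 25° C. Detection used TMB, read at 450 nm. IC50 was taken from a 4-parameter fit as the concentration giving half the zero-standard OD.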
# [2] = test system: antibodies raised to Immunogens I & II; test: Competitive ELISA, selected molecules as potential cross-reactants (Table 3); details: for % CR / IC50: Table 3, standard conc 750.00 ng/ml
# Description: (a) The wells of an enhanced binding 96 well polystyrene microtiter plate were coated with the Ig fraction of the antiserum raised to Immunogen I (Hapten A-BTG—example 5) and diluted in 10 mM Tris, pH8.5 (125 μl/well). The appropriate antibody coating concentration was determined using standard ELISA checkerboard techniques. The plate was incubated for 2 hours at 37° C., washed 4 times over a 10-minute period with Tris buffered saline containing Tween 20 (TBST) and tapped dry. Standard solutions of JWH synthetic cannabinoids, metabolites and selected molecules were prepared in TBST and 50 μl of each was added to the appropriate wells. 75 μl of conjugate (Hapten A-HRP) diluted in Tris buffer containing EDTA, D-mannitol, sucrose, thimerosal and BSA, was added to each of the wells. The appropriate dilution of conjugate was also determined using standard ELISA checkerboard techniques. The plate was incubated at 25° C. for 1 hour. The excess unbound conjugate was removed by washing 6 times over a 10-minute period with TBST and tapped dry. 125 μl of tetramethylbenzedine (TMB) substrate solution was added to each well of the plate that was then incubated for 15-20 minutes in the dark at room temperature. The reaction was terminated by addition of 125 μl of 0.2M sulphuric acid to each well. The absorbance was then measured at 450 nm using a microtiter plate reader.
# Employing each series of standards, calibration curves were generated and these were used to determine the specificity of the immunoassay for the JWH synthetic cannabinoids, metabolites and selected molecules. The results of this study are presented in Tables 1 to 3, cross-reactivity being calculated according to the following formula: % CR=IC50,JWH-018/IC50,CR×100
# Where % CR is the percentage cross-reactivity, IC50, JWH-018 is the concentration of JWH-018 that causes 50% displacement of signal and IC50, CR is the concentration of JWH synthetic cannabinoid/metabolite/selected molecule that causes 50% displacement of signal.
# The antibody produced from Immunogen I is able to bind to JWH molecules known to be incorporated in herbal therapeutics such as JWH-018, proposed metabolites such as M2 (Wintermeyer et al 2010), and potential metabolites such as M5. The detection and quantification of other JWH SSCs is also provided for, the antibodies of the invention bind a range of molecules comprising the 3-(1-naphthoyl)-1H-indole structure (e.g. JWH-071, JWH-398, M1 etc.). […] The concept of using the antibodies of the invention to detect and determine future stealth synthetic cannabinoids is highlighted in Table 4; the 5-fluoropentyl derivative known to bind the CB 1 receptor, but which as of yet has not been detected in herbal therapeutics or similar substances, binds to antibodies raised from Immunogens I and II.
# [3] = test system: IgG fraction of antiserum raised to Immunogen IV; details: Antibody to Immunogen IV; cross-reactants at 100 ng/ml; 1000 ng/ml; standard JWH-018
# [4] = test system: IgG fraction of antiserum raised to Immunogen VIII; details: Antibody to Immunogen VIII; cross-reactants at 100 ng/ml; 1000 ng/ml; standard JWH-018
# [5] = test system: IgG fraction of antiserum raised to Immunogen VII; details: Antibody to Immunogen VII; cross-reactants at 100 ng/ml; 1000 ng/ml; standard JWH-015
# [6] = test system: IgG fraction of antiserum raised to Immunogen II; test: Competitive ELISA, antibody RS1833B12 to Immunogen II, tracer ESC4555 (Example 36); details: Antibody to Immunogen II; cross-reactants at 100 ng/ml; 1000 ng/ml; standard JWH-018
# Description: An aqueous solution of each immunogen was formulated with Freund's Complete Adjuvant (FCA) to form an emulsion consisting of 2 mg/ml*immunogen in 50% (v/v) FCA. Three sheep were immunised with this emulsion (1° immunisation), 0.25 ml being intramuscularly injected at each of four sites in the flank of each animal. Subsequent immunizations (boosts) contained 1 mg/ml*immunogen. All boosts were emulsified in 50% (v/v) Freund's Incomplete Adjuvant (FIA) and were administered in the same manner as the 1° immunisation, at monthly intervals. Blood sampling took place 7 to 14 days after each boost. *The general procedure for immunogen administration is outlined above, however, it was necessary to deviate from this protocol in some cases, due to reduced immunogen concentrations (Immunogens II, IV, VII and VIII) and/or amount available (Immunogen VIII). Any deviations from the protocol described are outlined in Table 5 below and highlighted in bold.
# The appropriate antibody coating dilution was determined using standard ELISA checkerboard techniques. The plate was incubated overnight at 4° C., washed 4 times over 10 minutes with Tris buffered saline containing Tween 20 (TBST) and tapped dry. […] 75 μl of conjugate (appropriate hapten-HRP) diluted in Tris buffer (pH 7.2) containing EDTA, D-mannitol, sucrose, thimerosal and BSA, was added to each of the wells. The appropriate dilution of conjugate was also determined using standard ELISA checkerboard techniques. The plate was incubated at 25° C. for 1 hour. Excess unbound conjugate was removed by washing 6 times over a 10 minute period with TBST. 125 μl of tetramethylbenzidine (TMB) substrate solution was added to each well of the plate that was then incubated for 20 minutes in the dark at room temperature. The reaction was terminated by addition of 125 μl 0.2M H2SO4 to each well. The absorbance was then measured at 450 nm using a microtiter plate reader. The data are inputted to a computer program called ‘KC Junior’. It is a 4 parameter fit curve and allow the calculation of concentrations between the standard runs.
# In a similar manner to that described above, the wells of a 96-well microtiter plate were coated with the IgG fraction of the antiserum raised to Immunogens I or II.
# The data set out in Tables 7-10 are generated using antibodies raised against the indicated Immunogens in a competitive binding assay with the indicated tracers, using the indicated standards
# Using the calibration curves generated and employing a single level of cross reactants, these were used to determine the cross-reactivity of each immunoassay with these substances. These are the standards used for the IC50 and cross-reactivity data generation: […]
Compound,% B/B0 [1],% CR [2],IC50 [2],% B/B0 [3],% B/B0 [4],% B/B0 [5],% B/B0 [6],binding / cross-reaction with antibodies raised from Immunogens I and II (in words) [2]
O=C(O)Cc1c[nH]c2ccc(O)cc12 [5-hydroxyindole-3-acetic acid],98.71%,<0.28%,>0.75 µg/mL,96.61%,108.24%,99.46%,,
NCCc1c[nH]c2ccc(O)cc12 [Serotonin],,<0.28%,>0.75 µg/mL,,,,,
CCCCCc1cc(O)c2c(c1)OC(C)(C)[C@@H]1CCC(CO)=C[C@@H]21 [11-Hydroxy-δ-9-THC],,<0.28%,>0.75 µg/mL,,,,,
"CCCCCn1cc(C(=O)O)c2ccccc21 [3-Carboxy-N-pentyl-1H-indole, 3-carboxy-1-pentyl-1H-indole]",,<0.28%,>0.75 µg/mL,,,,,
COc1cccc2[nH]cc(CCN(C)C)c12 [4-Methoxypsilocin],,<0.28%,>0.75 µg/mL,,,,,
"CCC(C)Cn1cc(C(=O)c2cccc3ccccc23)c2ccccc21 (single isomer, unassigned) [JWH-018 N-(2-methylbutyl) isomer]",3.61%,,,29.88%,85.16%,58.84%,28.60%,
"CCCCn1cc(C(=O)c2cccc3ccccc23)c2ccc(O)cc21 [6-OH JWH-073, JWH-073 6-hydroxyindole metabolite]",5.93%,,,74.89%,93.52%,61.83%,28.03%,
O=C(c1cccc2ccccc12)c1cn(CCCCO)c2ccccc12 [JWH-073 N-(4-hydroxybutyl) metabolite],3.22%,,,52.61%,57.99%,48.81%,60.01%,
O=C(c1ccccc1I)c1cn(CCCCCF)c2ccccc12 [AM-694],12.17%,,,11.30%,11.92%,75.66%,36.18%,
CCn1cc(C(=O)c2cccc3ccccc23)c2ccccc21 [JWH-071],,,,,,,,bind
CCCCCCCn1cc(C(=O)c2cccc3ccccc23)c2ccccc21 [JWH-020],16.03%,,,73.73%,100.73%,81.30%,35.75%,
CCCCCn1cc(C(=O)c2cccc3c(Cl)cccc23)c2ccccc21 [JWH-398 5-chloronaphthyl isomer],35.53%,,,7.06%,19.67%,91.33%,23.50%,
O=C(c1cccc2ccccc12)c1cn(CCCC(O)CF)c2ccccc12 (stereo not drawn) [AM-2201 N-(4-hydroxypentyl) metabolite],3.80%,,,43.62%,36.41%,52.75%,46.55%,
CN1CCCCC1Cn1cc(C(=O)c2ccccc2I)c2ccccc21 (stereo not drawn) [AM-2233],16.97%,,,92.10%,91.25%,72.46%,86.43%,
O=C(c1cccc2ccccc12)c1cn(CCN2CCOCC2)c2ccc(O)cc12 [JWH-200 5-hydroxyindole metabolite],12.61%,,,97.53%,90.88%,82.42%,64.99%,
CCCCCn1cc(C(=O)c2cccc3c(OC)cccc23)c2ccccc21 [JWH-081 5-methoxynaphthyl isomer],18.51%,,,6.24%,26.56%,94.16%,60.90%,
CCCCCn1cc(C(=O)c2cccc3ccccc23)c2ccc(OC)cc21 [JWH-018 6-methoxyindole analogue],10.55%,,,90.65%,77.22%,72.33%,20.44%,
"CCCCn1cc(C(=O)c2cccc3ccccc23)c2cc(O)ccc21 [5-OH JWH-073, JWH-073 5-hydroxyindole metabolite]",7.34%,,,84.06%,90.70%,75.11%,20.73%,
CCCCn1cc(C(=O)c2c(C)ccc3ccccc23)c2ccccc21 [JWH 073 2-methylnaphthyl analog],21.84%,,,34.47%,78.79%,76.74%,43.34%,
CC(O)CCCn1cc(C(=O)c2cccc3ccccc23)c2ccccc21 (racemic) [(±)-JWH 018 N-(4-hydroxypentyl) metabolite],4.23%,,,52.29%,21.94%,57.37%,53.99%,
C=CCCCn1cc(C(=O)c2cccc3ccccc23)c2ccccc21 [JWH-022],4.51%,,,10.61%,28.94%,58.44%,11.72%,
CCCCCn1cc(C(=O)c2c(C)ccc3ccccc23)c2ccccc21 [JWH 122 2-methylnaphthyl isomer],33.35%,,,26.13%,61.74%,85.37%,27.14%,
O=C(c1cccc2ccccc12)c1cn(CCN2CCOCC2)c2cccc(O)c12 [JWH-200 4-hydroxyindole metabolite],44.97%,,,87.88%,91.82%,91.15%,78.17%,
CCCCCn1cc(C(=O)c2cccc3ccc(C)cc23)c2ccccc21 [JWH 122 7-methylnaphthyl isomer],36.46%,,,13.48%,38.48%,92.44%,38.28%,
